The compounds below were run against Cav2.3 (Homo sapiens, UniProt Q15878) (assay: Human Cav2.3 channel calcium-influx assay). Conditions: HEK-293 T-Rex/Kir2.1 cells with inducible Cav2.3e-β4-α2δ1; Fluo8 fluorescence; 8-point dose response from 30 μM; no pluronic acid; read-out: Cav2.3 (pIC50) (converted).
Format: cell-based
Procedure: HEK-293 T-Rex cells were transfected with pcDNA3.1-Kir2.1 to generate a stable cell line. After antibiotic selection, the obtained stable pools were analysed using FLIPR^TETRA(membrane potential assay), and a limiting dilution was performed and a HEK-293 T-Rex/Kir2.1 clone was selected. The clone was transfected with pcDNA3.1-Cav2.3e and pBud-Cav-β4-α2δ1 to generate a stable cell line where the Cav2.3e expression is inducible. After antibiotic selection, functional clone pool analysis and two successive limiting dilutions, the final clone underwent a qPCR analysis and a biophysical and pharmacological validation using patch-clamp.
A compound plate, containing 10 test compounds in eight-points dose response with n=4, was prepared. Test compounds dose response curves were prepared in automated fashion in 100% DMSO at CyBio Felix and starting from a stock solution in 100% DMSO; a defined volume was serially moved into destination wells pre-filled with the desired DMSO volume; stock solution concentration volumes were dependent on the final compounds concentrations to be tested and the final DMSO content used in the assay. For the assay test compounds dose response curves ranged from 30 μM and half log dilution with 0.3% final DMSO. In order to obtain the 8-points dose response curve all the concentrations were created by starting from a 10 mM DMSO stock solution and then moving 9.5 μL into a destination well pre-filled with 20.5 μL of 100% DMSO and repeating this step seven times. This initial step was done into 96 MTP plates, 10 compounds/plate. One 384 MTP was then reformatted to contain all the 10 compounds at 8 concentrations, quadruplicate data points. This so obtained 384 MTP compound plate served as source plate in a “mother to child” process with a CyBi®-Well dispenser in which 0.7 μL of compounds were moved into a destination plate pre-filled with 57.6 μL of Tyrode's buffer 0 mM K^+, thus obtaining 4× concentrated compounds solution. In columns 1-2 and 23-24 the control wells were added. Both “source” compound plate and “destination” compound plate were barcoded and a relationship between the two plates was thus generated.
The day before the experiment, cells were detached by gentle wash with DPBS, followed by 5 min incubation at 37° C. with Trypsin solution. Detached cells were diluted with OptiMEM+Doxycycline at 0.2 μg/mL, counted and plated in Poly-D-Lysine coated black/clear bottom (15.000 c/well in 20 μl/well) by the use of a MATRIX WellMate dispenser. Plates were placed into a humidified incubator at 37° C. with 5% CO2 until the experimental day. 24 h after seeding 10 μL/well of 1.5× Fluo8 NW dye solution prepared in Tyrode's buffer 0 mM K^+ were added on top of the seeding medium. Cell plates were incubated for 40-60 min at RT in the dark. We then Injected off-line 10 μL/well of test compounds and controls 4× concentrated in Tyrode's Buffer 0 mM K+ with the CyBi®-Well instrument. Cell plates were incubated 3 minutes at RT. Finally, we injected 20 μL/well of 3× concentrated activator solution (K20-Na130-Ca2 buffer: 20 mM KCl, 130 mM NaCl, 2 mM CaCl2, 10 mM HEPES, 10 mM Glucose, final concentrations, prepared starting from “K0-Na150-Ca2” and “K150-Na0-Ca2” buffers) at FDSS7000EX instrument and read emitted fluorescence for 130 seconds.
Data analysis was performed with Genedata Screener® software and reported compounds activity as % effect in relation to the normalization standards. The Kinetic Response Value (KRV) is calculated as follows:
KRV=Maximal fluorescence recorded from second 5 to second 130 minus baseline fluorescence, computed as average from second 1 to second 2, of the kinetic trace. The KRV was normalized versus Neutral Controls and Inhibitor Controls in order to obtain the Activity[%] for each well. […] Therefore, the compound activity values were scaled (based on the two references) to a common range (two-point normalization). […]

Chain of Cav2.3 (Q15878 1-2270 isoform Q15878-3): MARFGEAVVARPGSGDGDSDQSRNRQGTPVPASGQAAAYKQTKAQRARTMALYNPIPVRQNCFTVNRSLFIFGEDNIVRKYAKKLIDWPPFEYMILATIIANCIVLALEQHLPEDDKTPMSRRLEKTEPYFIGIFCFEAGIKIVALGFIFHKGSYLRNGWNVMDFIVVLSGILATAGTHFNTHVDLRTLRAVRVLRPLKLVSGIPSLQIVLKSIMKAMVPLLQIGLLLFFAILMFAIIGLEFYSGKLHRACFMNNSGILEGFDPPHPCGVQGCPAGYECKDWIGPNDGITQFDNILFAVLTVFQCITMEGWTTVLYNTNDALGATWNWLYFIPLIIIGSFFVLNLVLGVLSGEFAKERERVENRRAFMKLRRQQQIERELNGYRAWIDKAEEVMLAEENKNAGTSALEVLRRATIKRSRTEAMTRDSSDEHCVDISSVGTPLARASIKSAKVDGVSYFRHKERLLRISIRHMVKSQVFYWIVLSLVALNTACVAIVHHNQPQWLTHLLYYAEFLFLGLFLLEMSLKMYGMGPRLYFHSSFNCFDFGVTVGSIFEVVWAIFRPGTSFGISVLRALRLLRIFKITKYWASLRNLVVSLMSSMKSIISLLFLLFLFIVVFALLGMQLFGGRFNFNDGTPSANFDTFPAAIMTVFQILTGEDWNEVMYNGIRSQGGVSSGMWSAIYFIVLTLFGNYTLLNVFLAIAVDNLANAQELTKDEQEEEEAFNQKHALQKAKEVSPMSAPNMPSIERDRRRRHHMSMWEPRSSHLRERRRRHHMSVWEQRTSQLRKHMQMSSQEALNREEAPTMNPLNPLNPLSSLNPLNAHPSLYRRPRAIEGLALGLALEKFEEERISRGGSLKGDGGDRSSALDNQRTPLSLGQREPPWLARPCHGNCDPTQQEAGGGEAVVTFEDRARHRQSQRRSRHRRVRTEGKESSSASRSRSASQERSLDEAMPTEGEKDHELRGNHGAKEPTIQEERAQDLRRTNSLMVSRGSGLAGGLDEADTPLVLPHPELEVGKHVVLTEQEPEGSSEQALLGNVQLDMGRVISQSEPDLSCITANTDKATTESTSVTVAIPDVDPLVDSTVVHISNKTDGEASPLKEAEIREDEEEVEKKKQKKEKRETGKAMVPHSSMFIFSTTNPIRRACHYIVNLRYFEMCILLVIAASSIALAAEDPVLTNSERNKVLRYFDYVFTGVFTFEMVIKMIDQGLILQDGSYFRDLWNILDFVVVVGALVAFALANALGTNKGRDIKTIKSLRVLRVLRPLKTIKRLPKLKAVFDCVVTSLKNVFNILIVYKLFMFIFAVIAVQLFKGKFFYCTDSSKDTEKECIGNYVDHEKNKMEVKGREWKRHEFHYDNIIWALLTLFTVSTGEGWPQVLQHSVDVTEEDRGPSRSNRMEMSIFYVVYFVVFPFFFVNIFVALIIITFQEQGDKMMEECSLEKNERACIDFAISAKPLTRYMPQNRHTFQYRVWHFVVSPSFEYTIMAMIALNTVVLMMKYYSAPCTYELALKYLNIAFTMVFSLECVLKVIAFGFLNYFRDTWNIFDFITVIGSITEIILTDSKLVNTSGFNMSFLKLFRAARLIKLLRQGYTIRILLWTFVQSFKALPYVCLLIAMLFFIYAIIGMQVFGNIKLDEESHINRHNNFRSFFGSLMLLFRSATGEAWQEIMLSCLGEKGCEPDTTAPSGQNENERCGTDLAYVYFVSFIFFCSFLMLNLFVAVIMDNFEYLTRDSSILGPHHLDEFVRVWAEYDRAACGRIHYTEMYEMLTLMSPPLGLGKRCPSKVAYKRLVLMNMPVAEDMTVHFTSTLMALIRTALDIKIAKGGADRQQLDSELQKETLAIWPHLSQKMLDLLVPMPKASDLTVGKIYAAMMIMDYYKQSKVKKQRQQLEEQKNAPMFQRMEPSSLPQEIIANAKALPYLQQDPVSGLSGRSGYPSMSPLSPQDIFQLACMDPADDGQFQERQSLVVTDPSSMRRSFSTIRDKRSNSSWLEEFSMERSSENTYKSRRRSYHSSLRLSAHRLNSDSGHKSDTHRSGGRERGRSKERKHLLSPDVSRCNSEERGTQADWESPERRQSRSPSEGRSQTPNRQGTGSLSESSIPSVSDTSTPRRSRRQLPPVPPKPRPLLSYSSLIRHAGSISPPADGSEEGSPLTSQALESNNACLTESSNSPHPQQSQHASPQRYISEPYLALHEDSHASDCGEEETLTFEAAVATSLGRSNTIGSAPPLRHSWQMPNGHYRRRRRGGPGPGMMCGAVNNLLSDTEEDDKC

Row | Structure (SMILES) | IC50
1 | CC(C)C(=O)N1CCc2ccc(S(=O)(=O)N(CCF)[C@H](c3ccc(F)cc3)C(F)(F)F)cc2C1 [Example 51, (R)-N-(2-fluoroethyl)-2-isobutyryl-N-(2,2,2-trifluoro-1-(4-fluorophenyl)ethyl)-1,2,3,4-tetrahydroisoquinoline-7-sulfonamide] | 0.417 µM
2 | CCN(C(c1ccc(F)cc1)C(F)(F)F)S(=O)(=O)c1ccc2c(c1)CN(C(=O)C(C)(C)F)CC2 (stereo not shown) [Example 18, N-ethyl-2-(2-fluoro-2-methylpropanoyl)-N-(2,2,2-trifluoro-1-(4-fluorophenyl)ethyl)-1,2,3,4-tetrahydroisoquinoline-7-sulfonamide] | 1.1 µM
3 | CCN([C@@H](c1ccc(F)cc1)C(F)(F)F)S(=O)(=O)c1ccc2c(c1)CN(C(=O)C(C)(C)F)CC2 [Example 42, (S)-N-ethyl-2-(2-fluoro-2-methylpropanoyl)-N-(2,2,2-trifluoro-1-(4-fluorophenyl)ethyl)-1,2,3,4-tetrahydroisoquinoline-7-sulfonamide] | 2.63 µM
4 | CCN([C@@H](c1ccc(F)cc1)C(F)(F)F)S(=O)(=O)c1ccc2c(c1)CN(C(=O)C1CC1)CC2 [Example 47, (S)-2-(Cyclopropanecarbonyl)-N-ethyl-N-(2,2,2-trifluoro-1-(4-fluorophenyl)ethyl)-1,2,3,4-tetrahydroisoquinoline-7-sulfonamide] | 4.57 µM
5 | CCN([C@@H](C)c1ccc(F)cc1)S(=O)(=O)c1ccc2c(c1)C(C)(C)CN(C(=O)C1CC1)C2 [Example 23, (S)-2-(cyclopropanecarbonyl)-N-ethyl-N-(1-(4-fluorophenyl)ethyl)-4,4-dimethyl-1,2,3,4-tetrahydroisoquinoline-6-sulfonamide] | 2.14 µM
6 | CCN(C1(c2ccc(F)cc2)COC1)S(=O)(=O)c1ccc2c(c1)CN(C(=O)C(C)C)CC2 [Example 28, N-ethyl-N-(3-(4-fluorophenyl)oxetan-3-yl)-2-isobutyryl-1,2,3,4-tetrahydroisoquinoline-7-sulfonamide] | 3.8 µM
7 | CCN([C@@H](C)c1ccc(F)cc1)S(=O)(=O)c1cnc2c(c1)CCN(C(=O)C1CC1)C2 [Example 32, (S)-7-(cyclopropanecarbonyl)-N-ethyl-N-(1-(4-fluorophenyl)ethyl)-5,6,7,8-tetrahydro-1,7-naphthyridine-3-sulfonamide] | 2.29 µM
8 | CCN([C@@H](C)c1ccc(F)cc1)S(=O)(=O)c1ccc2c(c1)CN(C(=O)C(C)(C)F)CC2 [Example 19, (S)-N-ethyl-2-(2-fluoro-2-methylpropanoyl)-N-(1-(4-fluorophenyl)ethyl)-1,2,3,4-tetrahydroisoquinoline-7-sulfonamide] | 0.575 µM
9 | CCN(C(c1ccc(F)cc1)C(F)(F)F)S(=O)(=O)c1ccc2c(c1)CN(C(=O)C1COC1)CC2 (stereo not shown) [Example 44, N-ethyl-2-(oxetane-3-carbonyl)-N-(2,2,2-trifluoro-1-(4-fluorophenyl)ethyl)-1,2,3,4-tetrahydroisoquinoline-7-sulfonamide] | 2.04 µM
10 | CCN(C(c1ccc(F)cc1)C(F)(F)F)S(=O)(=O)c1ccc2c(c1)CN(C(=O)C1CC1)CC2 (stereo not shown) [Example 46, 2-(Cyclopropanecarbonyl)-N-ethyl-N-(2,2,2-trifluoro-1-(4-fluorophenyl)ethyl)-1,2,3,4-tetrahydroisoquinoline-7-sulfonamide] | 0.316 µM
11 | CC(C)C(=O)N1CCc2ccc(S(=O)(=O)N(C)C3(c4ccc(F)cc4)COC3)cc2C1 [Example 29, N-(3-(4-fluorophenyl)oxetan-3-yl)-2-isobutyryl-N-methyl-1,2,3,4-tetrahydroisoquinoline-7-sulfonamide] | 7.08 µM
12 | CCN(C1(c2ccc(F)cc2)COC1)S(=O)(=O)c1ccc2c(c1)CCN(C(=O)C(C)C)C2 [Example 30, N-ethyl-N-(3-(4-fluorophenyl)oxetan-3-yl)-2-isobutyryl-1,2,3,4-tetrahydroisoquinoline-6-sulfonamide] | 6.76 µM
13 | CCN([C@@H](C)c1ccc(F)cc1)S(=O)(=O)c1cc2c(cn1)CN(C(=O)C1CC1)CC2 [Example 34, (S)-7-(cyclopropanecarbonyl)-N-ethyl-N-(1-(4-fluorophenyl)ethyl)-5,6,7,8-tetrahydro-2,7-naphthyridine-3-sulfonamide] | 3.02 µM
14 | CCN([C@H](c1ccc(F)cc1)C(F)(F)F)S(=O)(=O)c1ccc2c(c1)CN(C(=O)C(C)(C)F)CC2 [Example 41, (R)-N-ethyl-2-(2-fluoro-2-methylpropanoyl)-N-(2,2,2-trifluoro-1-(4-fluorophenyl)ethyl)-1,2,3,4-tetrahydroisoquinoline-7-sulfonamide] | 0.891 µM

Second part, the compound after the results:

Row | IC50 | Structure (SMILES)
15 | 1.74 µM | CCN([C@@H](C)c1ccc(F)cc1)S(=O)(=O)c1ccc2c(c1)CCN(C(=O)C(C)C)C2 [Example 24, (S)-N-ethyl-N-(1-(4-fluorophenyl)ethyl)-2-isobutyryl-1,2,3,4-tetrahydroisoquinoline-6-sulfonamide]
16 | 2 µM | C[C@@H](c1ccccc1)N(C)S(=O)(=O)c1ccc2c(c1)CN(C(=O)c1ccccc1)CC2 [Example 4, (S)-2-benzoyl-N-methyl-N-(1-phenylethyl)-1,2,3,4-tetrahydroisoquinoline-7-sulfonamide]
17 | 2.04 µM | C[C@@H](c1ccccc1)N(C)S(=O)(=O)c1ccc2c(c1)CN(C(=O)C(F)(F)F)CC2 [Example 2, (S)-N-methyl-N-(1-phenylethyl)-2-(2,2,2-trifluoroacetyl)-1,2,3,4-tetrahydroisoquinoline-7-sulfonamide]
18 | 0.891 µM | CC(C)C(=O)N1CCc2ccc(S(=O)(=O)N(C)[C@@H](C)c3ccccc3)cc2C1 [Example 15, (S)-2-isobutyryl-N-methyl-N-(1-phenylethyl)-1,2,3,4-tetrahydroisoquinoline-7-sulfonamide]
19 | 6.46 µM | CC(C)N1CCc2cc(S(=O)(=O)N(C)[C@@H](C)c3ccccc3)ccc2C1=O [Example 37, (S)-2-isopropyl-N-methyl-1-oxo-N-(1-phenylethyl)-1,2,3,4-tetrahydroisoquinoline-6-sulfonamide]
20 | 9.12 µM | CC(C)C(=O)N1CCc2cc(S(=O)(=O)N(C)C3(c4ccc(F)cc4)COC3)ccc2C1 [Example 31, N-(3-(4-fluorophenyl)oxetan-3-yl)-2-isobutyryl-N-methyl-1,2,3,4-tetrahydroisoquinoline-6-sulfonamide]
21 | 3.16 µM | CC(C)C(=O)N1CCCc2cc(S(=O)(=O)N(C)[C@@H](C)c3ccccc3)ccc2C1 [Example 35, (S)-2-Isobutyryl-N-methyl-N-(1-phenylethyl)-2,3,4,5-tetrahydro-1H-benzo[c]azepine-7-sulfonamide]
22 | 0.851 µM | CC(C)C(=O)N1CCc2ccc(S(=O)(=O)N(C)[C@@H](C)c3ccc(F)cc3)cc2C1 [Example 11, (S)-N-(1-(4-fluorophenyl)ethyl)-2-isobutyryl-N-methyl-1,2,3,4-tetrahydroisoquinoline-7-sulfonamide]
23 | 1.07 µM | CC(C)C(=O)N1CCc2ccc(S(=O)(=O)N(C)C(c3ccc(F)cc3)C(F)(F)F)cc2C1 (stereo not shown) [Example 8, 2-isobutyryl-N-methyl-N-(2,2,2-trifluoro-1-(4-fluorophenyl)ethyl)-1,2,3,4-tetrahydroisoquinoline-7-sulfonamide]
24 | 1.95 µM | CC(C)C(=O)N1CCc2ccc(S(=O)(=O)N(C)[C@@H](C)c3ccccc3)cc2CC1 [Example 36, (S)-3-isobutyryl-N-methyl-N-(1-phenylethyl)-2,3,4,5-tetrahydro-1H-benzo[d]azepine-7-sulfonamide]
25 | 3.72 µM | CC(C)C(=O)N1CCc2ccc(S(=O)(=O)N(C)[C@@H](c3ccc(F)cc3)C(F)(F)F)cc2C1 [Example 10, (S)-2-isobutyryl-N-methyl-N-(2,2,2-trifluoro-1-(4-fluorophenyl)ethyl)-1,2,3,4-tetrahydroisoquinoline-7-sulfonamide]
